# Reference: BindingDB's records for doi:10.1016/s0960-894x(02)00790-4 (British Biotech Pharmaceuticals, 2002)
# Structures can show the parent of a compound that is named as a salt.
# Columns and labels:
# Assay in all cases: Compound was evaluated for inhibition of peptide deformylase, PDF.Ni of Escherichia coli
# [1] = biological target: Peptide deformylase (Escherichia coli) (UniProt P0A6K3)
# [2] = biological target: Peptide deformylase (Escherichia coli) (UniProt P0A6K3); remark: listed apart in the source
# [3] = biological target: Peptide deformylase (Escherichia coli) (UniProt P0A6K3); remark: listed apart in the source
# Chain of Peptide deformylase (Escherichia coli) (P0A6K3 whole entry, looked up): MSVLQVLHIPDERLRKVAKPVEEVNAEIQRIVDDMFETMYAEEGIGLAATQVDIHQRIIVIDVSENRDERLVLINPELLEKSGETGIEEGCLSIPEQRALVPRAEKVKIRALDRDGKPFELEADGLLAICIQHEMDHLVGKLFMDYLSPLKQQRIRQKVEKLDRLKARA
Compound,IC50 [2] [nM],further results
CCCC[C@H](CS)C(=O)N[C@@H](CCCCN)C(=O)Nc1ccc([N+](=O)[O-])cc1 [(S)-2-Mercaptomethyl-hexanoic acid [(S)-5-amino-1-(4-nitro-phenylcarbamoyl)-pentyl]-amide],,Ki [1]: 19 nM
"CCCC[C@H](CC(=O)NO)C(=O)N[C@H](C(=O)N(C)C)C(C)(C)C [(R)-2-Butyl-N*1*-((S)-1-dimethylcarbamoyl-2,2-dimethyl-propyl)-N*4*-hydroxy-succinamide]",1,
CCCCC(CS)C(=O)NC(CCCNC(=N)N)C(=O)OC (stereo not given) [5-Guanidino-2-(2-mercaptomethyl-hexanoylamino)-pentanoic acid methyl ester; TFA],,Ki [3]: 2500 nM
"CCCC[C@H](CN(O)C(N)=O)C(=O)N[C@H](C(=O)N(C)C)C(C)(C)C [(2R)-2-{[(aminocarbonyl)(hydroxy)amino]methyl}-N-{(1S)-1-[(dimethylamino)carbonyl]-(2,2-dimethyl)-propyl}hexanamide]",> 1000,
"CCCCC(CC(=N)NO)C(=O)N[C@H](C(=O)N(C)C)C(C)(C)C (stereo partly drawn) [(R)-2-(N-Hydroxycarbamimidoylmethyl)-hexanoic acid ((S)-1-dimethylcarbamoyl-2,2-dimethyl-propyl)-amide]",> 1000,
"CCCC[C@H](CNC=O)C(=O)N[C@H](C(=O)N(C)C)C(C)(C)C [(R)-2-Formylaminomethyl-hexanoic acid ((S)-1-dimethylcarbamoyl-2,2-dimethyl-propyl)-amide]",> 1000,

# Now from value to compound, other results behind:
IC50 [2] [nM],Compound,further results
> 1000,"CCCC[C@H](NCC(=O)O)C(=O)N[C@H](C(=O)N(C)C)C(C)(C)C [[(S)-1-((S)-1-Dimethylcarbamoyl-2,2-dimethyl-propylcarbamoyl)-pentylamino]-acetic acid]",
200,"CCCC[C@H](CC(=O)NN)C(=O)N[C@H](C(=O)N(C)C)C(C)(C)C [(R)-2-Hydrazinocarbonylmethyl-hexanoic acid ((S)-1-dimethylcarbamoyl-2,2-dimethyl-propyl)-amide]",
> 1000,"CCCCC(C[PH](=O)O)C(=O)N[C@H](C(=O)N(C)C)C(C)(C)C (stereo partly drawn) [[2-((S)-1-Dimethylcarbamoyl-2,2-dimethyl-propylcarbamoyl)-hexyl]-phosphinic acid]",
> 1000,"CCCCC(CP(=O)(O)O)C(=O)N[C@H](C(=O)N(C)C)C(C)(C)C (stereo partly drawn) [[2-((S)-1-Dimethylcarbamoyl-2,2-dimethyl-propylcarbamoyl)-hexyl]-phosphonic acid]",
